Assays:
[1] = molecular target: T1, Bifunctional 3'-5' exonuclease/ATP-dependent helicase WRN [480-1251] (UniProt Q14191); experiment: Biochemical Activity Assays
T1 construct: 480-1251

[2] = molecular target: Bifunctional 3'-5' exonuclease/ATP-dependent helicase WRN (Homo sapiens, UniProt Q14191); experiment: ADP-Glo Kinase Assay
Experimental: ATPase activity was measured using the ADP-Glo Kinase Assay following the manufacturers recommended protocol.

Sequence of Bifunctional 3'-5' exonuclease/ATP-dependent helicase WRN (Q14191 whole entry): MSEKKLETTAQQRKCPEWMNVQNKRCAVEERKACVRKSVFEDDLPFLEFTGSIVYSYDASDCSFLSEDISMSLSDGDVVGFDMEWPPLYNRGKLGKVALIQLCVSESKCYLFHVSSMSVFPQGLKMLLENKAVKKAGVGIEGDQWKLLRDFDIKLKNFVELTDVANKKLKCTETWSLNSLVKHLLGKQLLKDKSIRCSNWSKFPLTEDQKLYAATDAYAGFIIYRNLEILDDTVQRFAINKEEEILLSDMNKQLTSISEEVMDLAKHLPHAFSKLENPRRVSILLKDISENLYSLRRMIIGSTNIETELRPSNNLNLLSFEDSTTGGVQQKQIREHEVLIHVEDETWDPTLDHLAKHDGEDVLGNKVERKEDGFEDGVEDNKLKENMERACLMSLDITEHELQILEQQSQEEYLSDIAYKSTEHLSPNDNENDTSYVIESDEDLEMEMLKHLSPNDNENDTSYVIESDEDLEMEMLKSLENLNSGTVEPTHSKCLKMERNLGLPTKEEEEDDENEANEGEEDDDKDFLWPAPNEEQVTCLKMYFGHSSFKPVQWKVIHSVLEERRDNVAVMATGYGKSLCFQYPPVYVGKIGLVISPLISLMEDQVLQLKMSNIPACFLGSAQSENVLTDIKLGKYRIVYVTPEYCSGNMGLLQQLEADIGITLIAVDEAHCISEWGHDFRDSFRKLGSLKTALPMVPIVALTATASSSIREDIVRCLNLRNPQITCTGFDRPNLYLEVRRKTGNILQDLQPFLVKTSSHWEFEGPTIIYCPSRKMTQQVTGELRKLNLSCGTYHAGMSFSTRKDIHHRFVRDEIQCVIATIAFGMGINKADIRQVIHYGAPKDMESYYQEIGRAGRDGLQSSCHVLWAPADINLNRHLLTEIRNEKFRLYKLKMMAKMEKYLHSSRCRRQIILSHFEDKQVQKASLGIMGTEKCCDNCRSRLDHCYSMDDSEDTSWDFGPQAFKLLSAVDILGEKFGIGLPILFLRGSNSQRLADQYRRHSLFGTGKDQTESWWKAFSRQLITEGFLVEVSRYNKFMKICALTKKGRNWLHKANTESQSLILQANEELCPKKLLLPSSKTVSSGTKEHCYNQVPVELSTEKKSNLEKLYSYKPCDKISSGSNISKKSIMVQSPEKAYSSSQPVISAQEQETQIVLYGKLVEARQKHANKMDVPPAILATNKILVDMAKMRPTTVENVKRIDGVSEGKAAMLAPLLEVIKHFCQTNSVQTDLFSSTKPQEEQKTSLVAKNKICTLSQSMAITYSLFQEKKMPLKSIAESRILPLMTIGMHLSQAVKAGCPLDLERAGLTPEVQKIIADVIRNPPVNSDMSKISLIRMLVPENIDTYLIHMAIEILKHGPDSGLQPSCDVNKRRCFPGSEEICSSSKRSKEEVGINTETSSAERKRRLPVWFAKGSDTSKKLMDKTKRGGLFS
T1 sequence (Q14191 480-1251): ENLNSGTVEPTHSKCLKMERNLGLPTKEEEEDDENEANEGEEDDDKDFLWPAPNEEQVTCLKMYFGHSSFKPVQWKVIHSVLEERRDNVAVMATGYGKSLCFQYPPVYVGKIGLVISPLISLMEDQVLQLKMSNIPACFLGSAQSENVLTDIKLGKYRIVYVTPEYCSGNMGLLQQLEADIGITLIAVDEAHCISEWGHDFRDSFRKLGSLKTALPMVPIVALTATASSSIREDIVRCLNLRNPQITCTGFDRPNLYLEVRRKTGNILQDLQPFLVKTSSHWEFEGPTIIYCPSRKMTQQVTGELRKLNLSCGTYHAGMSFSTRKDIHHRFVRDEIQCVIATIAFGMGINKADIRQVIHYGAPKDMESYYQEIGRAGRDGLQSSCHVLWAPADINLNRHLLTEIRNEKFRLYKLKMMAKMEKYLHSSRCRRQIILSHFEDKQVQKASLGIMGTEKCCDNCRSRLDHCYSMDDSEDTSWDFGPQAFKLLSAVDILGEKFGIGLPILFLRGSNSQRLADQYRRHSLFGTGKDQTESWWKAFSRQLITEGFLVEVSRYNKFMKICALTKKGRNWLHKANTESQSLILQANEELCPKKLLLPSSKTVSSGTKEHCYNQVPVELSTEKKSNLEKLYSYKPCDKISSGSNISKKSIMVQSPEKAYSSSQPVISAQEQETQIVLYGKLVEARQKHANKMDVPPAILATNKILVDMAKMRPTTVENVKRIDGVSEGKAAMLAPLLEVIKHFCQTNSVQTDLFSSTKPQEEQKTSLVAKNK

SMILES | IC50 [1] | IC50 [2]
CCc1c(N2CCN(C(=O)c3ncnc(C)c3O)CC2)c(=O)n2nc(-c3cccc4c3COC4)nc2n1CC(=O)Nc1c(Cl)cc(C(F)(F)F)c2c1CC2 [WO2025049746, Example 386] | 0.06 µM | 0.089 µM
CCc1c(N2CCN(C(=O)C(C)O)CC2)c(=O)n2nc(C3=CCOCC3)nc2n1CC(=O)Nc1ccc(C(F)(F)F)cc1Cl (centres undefined) [WO2025049746, Example 54] | 0.0461 µM | 0.182 µM
CCc1c(N2CCN(C(=O)c3ncnc(C)c3O)CC2)c(=O)n2nc(-c3ccc4nn(C)cc4c3C)nc2n1CC(=O)Nc1ccc(C(F)(F)F)cc1Cl [WO2025049746, Example 295] | 0.035 µM | 0.034 µM
CCc1c(N2CCN(C(=O)c3cccc4c3ncn4C)CC2)c(=O)n2nc(C3=CCOCC3)nc2n1CC(=O)Nc1ccc(C(F)(F)F)cc1Cl [WO2025049746, Example 44] | 0.0517 µM | 0.0839 µM
CCc1c(N2CCN(C(=O)c3ncnc(C)c3O)CC2)c(=O)n2nc(-c3ccc4nn(CC)cc4c3)nc2n1CC(=O)Nc1ccc(C(F)(F)F)cc1Cl [WO2025049746, Example 319] | 0.03 µM | 0.025 µM
CCc1c(N2CCN(C(=O)c3ncnc(C)c3O)CC2)c(=O)n2nc(-c3cc4cn(C(F)F)nc4cc3F)nc2n1CC(=O)Nc1ccc(C(F)(F)F)cc1Cl [WO2025049746, Example 291] | 0.031 µM | 0.03 µM
CCc1c(N2CCN(C(=O)c3ncnc(C)c3O)CC2)c(=O)n2nc(-c3cnn4c3COCC4)nc2n1CC(=O)Nc1ccc(C(F)(F)F)cc1Cl [WO2025049746, Example 20] | 0.0536 µM | 0.0886 µM
CCc1c(N2CCN(C(=O)c3ncnc(C)c3O)CC2)c(=O)n2nc(-c3cc(C(F)(F)F)c4ncccc4c3)nc2n1CC(=O)Nc1ccc(C(F)(F)F)cc1Cl [WO2025049746, Example 322] | 0.096 µM | 0.072 µM
CCc1c(N2CCN(C(=O)c3ncnc(C)c3O)CC2)c(=O)n2nc(-c3cccc4c3OCCO4)nc2n1CC(=O)Nc1ccc(C(F)(F)F)cc1Cl [WO2025049746, Example 2] | 0.0187 µM | 0.0271 µM
CCc1c(N2CCN(C(=O)c3ncccc3N)CC2)c(=O)n2nc(C3=CCOCC3)nc2n1CC(=O)Nc1ccc(C(F)(F)F)cc1Cl [WO2025049746, Example 34] | 0.0285 µM | 0.0451 µM
CCc1c(N2CCN(C(=O)c3ncnc(C)c3O)CC2)c(=O)n2nc(-c3cc4c(cc3C)OCC4)nc2n1CC(=O)Nc1ccc(C(F)(F)F)cc1Cl [WO2025049746, Example 174] | 0.031 µM | 0.059 µM

The next lines start with the values.

IC50 [1] | IC50 [2] | SMILES
0.373 µM | 0.49 µM | CCc1c(N2CCN(C(=O)c3nccc4cc[nH]c34)CC2)c(=O)n2nc(-c3ccc4c(c3)COC4(C)C)nc2n1CC(=O)Nc1ccc(C(F)(F)F)cc1Cl [WO2025049746, Example 454]
0.109 µM | 0.138 µM | CCc1c(N2CCN(C(=O)c3cc4nnn(C)c4cc3O)CC2)c(=O)n2nc(-c3ccc4c(c3)COC4)nc2n1CC(=O)Nc1ccc(C(F)(F)F)cc1Cl [WO2025049746, Example 433]
0.031 µM | 0.04 µM | CCc1c(N2CCN(C(=O)c3ncnc(C)c3O)CC2)c(=O)n2nc(-c3ccc4c(c3)CO[C@H]4C)nc2n1CC(=O)Nc1ccc(C(F)(F)F)cc1Cl [WO2025049746, Example 192]
0.033 µM | 0.048 µM | CCc1c(N2CCN(C(=O)c3ncnc(C)c3O)CC2)c(=O)n2nc(-c3ccc4c(c3)N(C)C(=O)CO4)nc2n1CC(=O)Nc1ccc(C(F)(F)F)cc1Cl [WO2025049746, Example 198]
0.075 µM | 0.088 µM | CCc1c(N2CCN(C(=O)c3nc4c(cc3O)OCCC4)CC2)c(=O)n2nc(-c3ccc4c(c3)COC4)nc2n1CC(=O)Nc1ccc(C(F)(F)F)cc1Cl [WO2025049746, Example 432]
0.0394 µM | 0.0354 µM | CCc1c(N2CCN(C(=O)c3nc4n(c(=O)c3O)CCOC4)CC2)c(=O)n2nc(-c3ccc4c(c3)COC4(C)C)nc2n1CC(=O)Nc1ccc(C(F)(F)F)cc1Cl [WO2025049746, Example 462]
